In assay [1] the test system is tumor endothelial cells (CT26.CL25 colon cancer tumor). The assay can be described thus: Colon CT26 ex vivo model of tumor angiogenesis. Format: cell-based. Particulars: Mus musculus, CT26, 48 h, read-out: Cell death. The method in brief: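 Explant pieces of CT26 tumor (about 0.075 mm^3) were embedded in Matrigel and grown in endothelial growth medium at 37 °C for about 7 days until endothelial outgrowth appeared, then treated. Cell death was read about 48 h after drug addition by fluorescein diacetate (live) and propidium iodide (dead) staining with red/green imaging.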

In assay [2] the test system is tumor endothelial cells (LL/2 lung cancer tumor). The assay can be described thus: Lung LL2 ex vivo model of tumor angiogenesis. As to conditions: for cytotoxicity at 40 µM / cytotoxicity at 20 µM: Mus musculus, Endothelial cell, 48 h, read-out: Cell death; for Cell death: Lung LL2 ex vivo, drug treatment two days. Format: cell-based, mouse. The method in brief: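 Mouse LL2 tumor fragments (~0.5×0.5×0.3 mm) embedded in Matrigel and grown in endothelial growth medium at 37° C until endothelial outgrowth (about 4 days) before drug treatment. About 48 h after drug addition, stained 10 min with fluorescein diacetate/propidium iodide; live (green) and dead (red) cells imaged at 2× with fixed channel settings.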

Structures are written as SMILES.

In the case of `CCc1ccc(S(=O)(=O)c2cnc3ccc([N+](=O)[O-])cc3c2N2CCCN(C)CC2)cc1` [compound 76, 3-((4-ethylphenyl)sulfonyl)-4-(4-methyl-1,4-diazepan-1-yl)-6-nitroquinoline], the values for the cytotoxicity at 40 µM in assay [1] and in assay [2] were 100% and 20%, respectively.
Take `CCc1ccc(S(=O)(=O)c2cnc3ccc([N+](=O)[O-])cc3c2N2CCC(N3CCCCC3)CC2)cc1` [compound 77, 4-([1,4′-bipiperidin]-1′-yl)-3-((4-ethylphenyl)sulfonyl)-6-nitroquinoline]: the cytotoxicity at 40 µM in assay [1] came to 40%; in assay [2], 80%.
Consider `CCc1ccc(S(=O)(=O)c2cnc3ccc([N+](=O)[O-])cc3c2N(CC)CC)cc1` [compound 78, N,N-diethyl-3-((4-ethylphenyl)sulfonyl)-6-nitroquinolin-4-amine], for which the results for the cytotoxicity at 40 µM in assay [1] and in assay [2] were 0% and 40%, respectively.
Turning to `CCc1ccc(S(=O)(=O)c2cnc3ccc(OC)cc3c2-n2cncn2)cc1` [compound 79, 3-((4-ethylphenyl)sulfonyl)-6-methoxy-4-(1H-1,2,4-triazol-1-yl)quinoline], the cytotoxicity at 10 µM in assay [1] came to 100%. Moreover, the cytotoxicity at 20 µM in assay [2] is 20%.
For the compound `CCOC(=O)c1ccc2ncc(S(=O)(=O)c3ccc(CC)cc3)c(-n3cncn3)c2c1` [compound 80, ethyl 3-((4-ethylphenyl)sulfonyl)-4-(1H-1,2,4-triazol-1-yl)quinoline-6-carboxylate], in assay [1], the cytotoxicity at 10 µM is 100%. Moreover, in assay [2], the cytotoxicity at 20 µM worked out at 100%.
For `CCc1ccc(S(=O)(=O)c2cnc3ccc(OC(F)(F)F)cc3c2N(CC)CC)cc1` [compound 81, N,N-diethyl-3-((4-ethylphenyl)sulfonyl)-6-(trifluoromethoxy)quinolin-4-amine], the cytotoxicity at 40 µM in assay [1] and in assay [2] was 0% in each case.
In the case of `CCc1ccc(S(=O)(=O)c2cnc3ccc(OC(F)(F)F)cc3c2N2CCCC(O)C2)cc1` (centres unmarked) [compound 82, 1-(3-((4-ethylphenyl)sulfonyl)-6-(trifluoromethoxy)quinolin-4-yl)piperidin-3-ol], the results for the cytotoxicity at 40 µM in assay [1] and in assay [2] were 10% and 60%, respectively.
Regarding `CCOC(=O)c1ccc2ncc(S(=O)(=O)c3ccc(CC)cc3)c(NN3CCN(C)CC3)c2c1` [compound 84, ethyl 3-((4-ethylphenyl)sulfonyl)-4-((4-methylpiperazin-1-yl)amino)quinoline-6-carboxylate], the cytotoxicity at 40 µM in assay [1] and in assay [2] was 100% in each case.
As for `COc1ccc(S(=O)(=O)c2cnc3ccc(OC(F)(F)F)cc3c2NN2CCN(C)CC2)cc1` [compound 85, 3-((4-methoxyphenyl)sulfonyl)-N-(4-methylpiperazin-1-yl)-6-(trifluoromethoxy)quinolin-4-amine], the cytotoxicity at 40 µM in assay [1] came to 50%; in assay [2] it was 80%.
In the case of `COc1ccc(S(=O)(=O)c2cnc3ccc(OC(F)(F)F)cc3c2-n2cncn2)cc1` [compound 86, 3-((4-methoxyphenyl)sulfonyl)-4-(1H-1,2,4-triazol-1-yl)-6-(trifluoromethoxy)quinoline], the cytotoxicity at 10 µM in assay [1] came to 100%. The cytotoxicity at 20 µM in assay [2] stood at 100%.
Turning to `CCCCN(CCCC)c1c(S(=O)(=O)c2ccc(CC)cc2)cnc2ccc(OC(F)(F)F)cc12` [compound 87, N,N-dibutyl-3-((4-ethylphenyl)sulfonyl)-6-(trifluoromethoxy)quinolin-4-amine], the cytotoxicity at 40 µM in assay [1] and in assay [2] was 0% in each case.
`COc1ccc(S(=O)(=O)c2cnc3ccc(OC(F)(F)F)cc3c2NN2CCN(C)CC2)cc1OC` [compound 88, 3-((3,4-dimethoxyphenyl)sulfonyl)-N-(4-methylpiperazin-1-yl)-6-(trifluoromethoxy)quinolin-4-amine]: the results for the cytotoxicity at 40 µM in assay [1] and in assay [2] were 60% and 70%, respectively.
On to `COc1ccc(S(=O)(=O)c2cnc3ccc(OC(F)(F)F)cc3c2-n2cncn2)cc1OC` [compound 89, 3-((3,4-dimethoxyphenyl)sulfonyl)-4-(1H-1,2,4-triazol-1-yl)-6-(trifluoromethoxy)quinoline], for which, in assay [1], the cytotoxicity at 10 µM worked out at 100%. Further, the cytotoxicity at 20 µM in assay [2] came out at 100%.
On to `CN1CCN(Nc2c(S(=O)(=O)c3ccc(OC(F)(F)F)cc3)cnc3ccc(OC(F)(F)F)cc23)CC1` [compound 90, N-(4-methylpiperazin-1-yl)-6-(trifluoromethoxy)-3-((4-(trifluoromethoxy)phenyl)sulfonyl)quinolin-4-amine], for which the cytotoxicity at 40 µM in assay [1] amounted to 0%. This compound yielded a Cell death in assay [2] (Conc. 40 μm) of 10%.
Regarding `O=S(=O)(c1ccc(OC(F)(F)F)cc1)c1cnc2ccc(OC(F)(F)F)cc2c1-n1cncn1` [compound 91, 4-(1H-1,2,4-triazol-1-yl)-6-(trifluoromethoxy)-3-((4-(trifluoromethoxy)phenyl)sulfonyl)quinoline], the cytotoxicity at 10 µM in assay [1] came to 100%. Besides, the Cell death in assay [2] (Conc. 20 μm) worked out at 80%.
As to `CCCCOc1ccc(S(=O)(=O)c2cnc3ccc(OC(F)(F)F)cc3c2NN2CCN(C)CC2)cc1` [compound 92, 3-((4-butoxyphenyl)sulfonyl)-N-(4-methylpiperazin-1-yl)-6-(trifluoromethoxy)quinolin-4-amine], the cytotoxicity at 40 µM in assay [1] was 0%. For the same compound, in assay [2], the cytotoxicity at 20 µM stood at 10%.
`CCCCOc1ccc(S(=O)(=O)c2cnc3ccc(OC(F)(F)F)cc3c2-n2cncn2)cc1` [compound 93, 3-((4-butoxyphenyl)sulfonyl)-4-(1H-1,2,4-triazol-1-yl)-6-(trifluoromethoxy)quinoline]: in assay [1], the cytotoxicity at 10 µM was 100%. For the same compound, the cytotoxicity at 20 µM in assay [2] was 100%.
For `COc1ccc(S(=O)(=O)c2cnc3ccc([N+](=O)[O-])cc3c2NN2CCN(C)CC2)cc1` [compound 94, 3-((4-methoxyphenyl)sulfonyl)-N-(4-methylpiperazin-1-yl)-6-nitroquinolin-4-amine], the cytotoxicity at 40 µM came to 0% in assay [1] and 20% in assay [2].
Consider `CCc1ccc(S(=O)(=O)c2cnc3ccc(OC(F)(F)F)cc3c2NCCO)cc1` [compound 95, 2-((3-((4-ethylphenyl)sulfonyl)-6-(trifluoromethoxy)quinolin-4-yl)amino)ethan-1-ol], for which the cytotoxicity at 40 µM in assay [1] came to 0%; in assay [2], 10%.
Consider `COc1ccc(S(=O)(=O)c2cnc3cc(OC)c(OC)cc3c2-n2cncn2)cc1OC` [compound 96, 3-((3,4-dimethoxyphenyl)sulfonyl)-6,7-dimethoxy-4-(1H-1,2,4-triazol-1-yl)quinoline], for which, in assay [1], the cytotoxicity at 10 µM stood at 0%. The cytotoxicity at 20 µM in assay [2] stood at 0%.
For the compound `COc1ccc(S(=O)(=O)c2cnc3ccc([N+](=O)[O-])cc3c2-n2cncn2)cc1` [compound 97, 3-((4-methoxyphenyl)sulfonyl)-6-nitro-4-(1H-1,2,4-triazol-1-yl)quinoline], the cytotoxicity at 10 µM in assay [1] came out at 100%. For the same compound, the cytotoxicity at 20 µM in assay [2] is 50%.
As for `COc1ccc(S(=O)(=O)c2cnc3ccc(CC#N)cc3c2-n2cncn2)cc1` [compound 98, 2-(3-((4-methoxyphenyl)sulfonyl)-4-(1H-1,2,4-triazol-1-yl)quinolin-6-yl)acetonitrile], in assay [1], the cytotoxicity at 10 µM is 50%. In assay [2], the cytotoxicity at 20 µM amounted to 10%.

The record behind these values is patent US11884647B2, “Compounds and methods for targeting pathogenic blood vessels” (THE REGENTS OF THE UNIVERSITY OF CALIFORNIA, priority 2019, dated 2024).
